This test concerns the target T1, RARα (Homo sapiens, UniProt P10276).
T1 sequence (P10276 182-417): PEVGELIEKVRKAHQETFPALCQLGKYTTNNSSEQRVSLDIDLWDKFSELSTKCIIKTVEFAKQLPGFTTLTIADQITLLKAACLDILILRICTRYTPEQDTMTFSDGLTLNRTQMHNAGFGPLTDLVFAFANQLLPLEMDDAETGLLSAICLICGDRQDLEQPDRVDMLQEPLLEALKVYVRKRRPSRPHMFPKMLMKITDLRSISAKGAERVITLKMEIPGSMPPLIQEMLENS
As to the kind of experiment: Fluorescence competition binding assay (displacement of DC271). As to conditions: for Kd: stated for the RARs (RARα and RARγ) together, read-out: K D, binding to the RARs. The procedure: Fluorescence competition assays were employed to determine the relative binding affinities of each synthetic retinoid toward the LBD of the RARs. The assay is based on the potential for competitive displacement of the inherently fluorescent retinoid DC271 from the LBP by a test nonfluorescent synthetic retinoid. Changes in the fluorescence were measured following the addition of a serial dilution of the test compound and the results were plotted to generate a binding curve. […] Assays were performed for both RARα and RARγ. […] Nonlinear least-squares regression analyses were performed to calculate binding affinities and reported as binding K D, the equilibrium dissociation constant between the RAR isoform and the test synthetic retinoid.
RARα/γ proteins were expressed in BL21(DE3) cells (NEB) transformed into pET50b (Novagen) and pOPINS3C vectors, respectively, carrying the gene construct and containing a His6-3C-NusA tag or His6-3C-SUMO tag used for solubility. Transformations were carried out under standard conditions using Quick Transformation Protocol (New England Biolabs). Successful transformants were grown overnight in 2xYT media (Melford) and frozen for storage at −80 °C in 50% glycerol. Expression cultures were inoculated from glycerol stocks into 25 mL of 2xYT media (Melford) with 50 μg/mL kanamycin or 100 μg/mL ampicillin (Sigma-Aldrich) and grown overnight with shaking (37 °C, 150 rpm). The overnight cultures were transferred into 1 L expression flasks (2xYT/ampicillin 100 μg/mL or 2xYT/kanamycin 50 μg/mL) and grown with shaking at 37 °C, 150 rpm. Induction was carried out at an OD600 of 0.6–0.8, with 1 mL of 1 M IPTG (1 mM in culture), before shaking overnight (20 h) at 18 °C. The resulting cultures were spun down into pellets using an Avanti Hi-Speed centrifuge (JLA 8.1000, 4000 rpm, 30 min, 4 °C), before the supernatant was removed and the bacterial pellet were frozen at −80 °C.
RARα/γ (pET50b or pOPINS3C, BL21(DE3) (NEB)) were resuspended from pellet with 20 mL Wash Buffer (20 mM Tris-HCl, 300 mM NaCl and 20 mM imidazole, pH 8) and the resulting suspension was sonicated on ice (40% power, 2 min, repeated twice with 1 min rest in-between) before centrifuging (Avanti Hi-Speed JA25.50, 20,000 rpm, 1 h, 4 °C). Supernatants were clarified using 0.45 μm syringe filters (Thermo Fisher Scientific). Affinity chromatography and size-exclusion (SEC) chromatography were carried out on AKTA Pure25 (Cytiva). Supernatants were loaded onto the HisTrap HP column (5 mL, Cytiva) and washed using 25 mL of wash Buffer. The column was washed with Wash Buffer until UV trace returned to baseline, before RARα/γ was eluted using a gradient of Elution Buffer (20 mM Tris-HCl, 300 mM NaCl, 500 mM imidazole pH 8). The resulting protein-containing fractions were analyzed by SDS-PAGE (200 V, 30 min) using SurePAGE Bis-Tris 12% precast gels (Genscript). Protein concentrations were estimated using absorbance at 280 nm on a DS-11 spectrophotometer (Denovix) with calculated molecular weights and extinction coefficients (Expasy). RAR proteins were cleaved overnight from 3C-NusA tag or 3C-SUMO-His tag using 1 Unit/100 μg protein of HRV3C protease (Thermo Fisher Scientific) at 4 °C. Solution after digestion was loaded onto a HiLoad 16/600 Superdex 75 prep-grade column (Cytiva) and cleaved RARα/γ was separated from the tag based on molecular weight and eluted from the column using SEC Buffer (20 mM Tris-HCl, 300 mM NaCl and 0.5 mM TCEP, pH 8) into 2 mL fractions. The resulting protein fractions were analyzed by SDS PAGE (200 V, 30 min) using SurePAGE Bis-Tris 12% precast gels (Genscript), before being concentrated to 5 mg/mL using centrifugal concentrators (Sartorius) and frozen at −80 °C in small aliquots for use in binding assays.

Bounds are passed on as bounds.

With `COc1cc2c(cc1C#Cc1cc(F)c(C(=O)O)c(F)c1)C(C)(C)CCC2(C)C` [Compound 22, 2,6-Difluoro-4-[2-(3-methoxy-5,5,8,8-tetramethyl-5,6,7,8-tetrahydronaphthalen-2-yl)ethynyl]benzoic Acid], the Kd lay in the range of 0.1 to 1 µM.

Regarding `COc1cc2c(cc1C#Cc1ccc(C(=O)O)cn1)C(C)(C)CCC2(C)C` [Compound 27, 6-[2-(3-Methoxy-5,5,8,8-tetramethyl-5,6,7,8-tetrahydronaphthalen-2-yl)ethynyl]pyridine-3-carboxylic Acid], the Kd was more than 1 µM.

In the case of `Cc1cc2c(cc1C#Cc1ncc(C(=O)O)cn1)C(C)(C)CCC2(C)C` [Compound 28, 2-[2-(3,5,5,8,8-Pentamethyl-5,6,7,8-tetrahydronaphthalen-2-yl)ethynyl]pyrimidine-5-carboxylic Acid], the Kd is 0.1 to 1 µM.

`CC1(C)CCC(C)(C)c2nc(C#Cc3ccc(C(=O)O)cc3)cnc21` [Compound 30, 4-[2-(5,5,8,8-Tetramethyl-5,6,7,8-tetrahydroquinoxalin-2-yl)ethynyl]benzoic Acid]: the Kd lay within 0.1 to 1 µM.

As to `CC1(C)CCC(C)(C)c2nc(C#Cc3ccc(C(=O)O)cc3F)cnc21` [Compound 31, 3-Fluoro-4-[2-(5,5,8,8-tetramethyl-5,6,7,8-tetrahydroquinoxalin-2-yl)ethynyl]benzoic Acid], the Kd is 0.1 to 1 µM.

Take `Cc1sc(-c2ccc(C(=O)O)cc2)nc1-c1cnc2c(n1)C(C)(C)CCC2(C)C` [Compound 40, 4-[5-Methyl-4-(5,5,8,8-tetramethyl-5,6,7,8-tetrahydroquinoxalin-2-yl)-1,3-thiazol-2-yl]benzoic Acid]: the Kd was 0.1 to 1 µM.

Consider `Cc1sc(-c2ccc(C(=O)O)c(F)c2)nc1-c1cnc2c(n1)C(C)(C)CCC2(C)C` [Compound 42, 2-Fluoro-4-[5-methyl-4-(5,5,8,8-tetramethyl-5,6,7,8-tetrahydroquinoxalin-2-yl)-1,3-thiazol-2-yl]benzoic Acid], for which the Kd is 0.1 to 1 µM.

For `Cc1sc(-c2ccc(C(=O)O)cc2F)nc1-c1cnc2c(n1)C(C)(C)CCC2(C)C` [Compound 43, 3-Fluoro-4-[5-methyl-4-(5,5,8,8-tetramethyl-5,6,7,8-tetrahydroquinoxalin-2-yl)-1,3-thiazol-2-yl]benzoic Acid], the Kd was more than 1 µM.

As for `Cc1sc(-c2ccc(C(=O)O)cc2)nc1-c1ccc2c(c1)C(C)(C)CCC2(C)C` [GZ25, reference compound], the Kd lay in the range of 0.1 to 1 µM. Also, the “binding preference RARα versus RARγ (from K D)” value (log-log plot of K D for RARα and RARγ) was “bind RARγ stronger than RARα”.

Source of the values: paper PMC12163635, “Synthetic Retinoids for the Modulation of Genomic and Nongenomic Processes in Neurodegenerative Diseases” (ACS Omega, 2025).
